Molecules are shown by their SMILES.

Test [1] has as its target Mitogen-activated protein kinase kinase kinase 9 (Homo sapiens) (UniProt P80192). The settings on record: at 10 µM.
Test [2] concerns the target Tyrosine-protein kinase JAK2 (Homo sapiens, UniProt O60674). Description: Selectivity interaction (NanoBRET assay (HEK293T cells)) EUB0001558a JAK2. It counts as cell-based, HEK-293T. On the technique in general: In BRET a luciferase serves as donor, and the signal depends on an acceptor being close.
For test [3], the target named is SRSF protein kinase 2 (Homo sapiens) (UniProt P78362). Conditions: at 10 µM.
Chain of SRSF protein kinase 2 (Homo sapiens) (P78362 whole entry, looked up): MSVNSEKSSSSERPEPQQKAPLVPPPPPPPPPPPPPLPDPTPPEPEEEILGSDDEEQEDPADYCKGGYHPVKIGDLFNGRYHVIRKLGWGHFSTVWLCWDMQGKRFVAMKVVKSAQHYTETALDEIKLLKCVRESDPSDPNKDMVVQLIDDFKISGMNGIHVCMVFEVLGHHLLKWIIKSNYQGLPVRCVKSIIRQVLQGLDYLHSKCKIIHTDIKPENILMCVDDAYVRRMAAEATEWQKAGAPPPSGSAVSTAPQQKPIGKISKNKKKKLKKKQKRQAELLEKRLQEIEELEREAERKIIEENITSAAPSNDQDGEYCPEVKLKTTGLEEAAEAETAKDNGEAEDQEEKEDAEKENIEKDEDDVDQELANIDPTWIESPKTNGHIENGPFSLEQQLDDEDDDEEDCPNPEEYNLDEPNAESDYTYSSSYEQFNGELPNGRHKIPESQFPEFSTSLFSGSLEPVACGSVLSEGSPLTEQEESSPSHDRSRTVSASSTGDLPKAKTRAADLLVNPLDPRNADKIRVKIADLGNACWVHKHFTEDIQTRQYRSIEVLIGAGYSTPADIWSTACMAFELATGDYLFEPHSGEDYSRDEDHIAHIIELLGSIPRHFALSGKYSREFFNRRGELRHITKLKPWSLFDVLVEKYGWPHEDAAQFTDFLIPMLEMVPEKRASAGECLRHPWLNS
For test [4], the target named is RAC-beta serine/threonine-protein kinase (Homo sapiens) (UniProt P31751). As to the kind of experiment: Selectivity interaction (KinomeScan (DiscoverX)) EUB0001079a AKT2. Conditions: at 1 µM.
The target of test [5] is T1, MAP/microtubule affinity-regulating kinase 4 (Homo sapiens) (UniProt Q96L34).
T1 sequence (whole entry): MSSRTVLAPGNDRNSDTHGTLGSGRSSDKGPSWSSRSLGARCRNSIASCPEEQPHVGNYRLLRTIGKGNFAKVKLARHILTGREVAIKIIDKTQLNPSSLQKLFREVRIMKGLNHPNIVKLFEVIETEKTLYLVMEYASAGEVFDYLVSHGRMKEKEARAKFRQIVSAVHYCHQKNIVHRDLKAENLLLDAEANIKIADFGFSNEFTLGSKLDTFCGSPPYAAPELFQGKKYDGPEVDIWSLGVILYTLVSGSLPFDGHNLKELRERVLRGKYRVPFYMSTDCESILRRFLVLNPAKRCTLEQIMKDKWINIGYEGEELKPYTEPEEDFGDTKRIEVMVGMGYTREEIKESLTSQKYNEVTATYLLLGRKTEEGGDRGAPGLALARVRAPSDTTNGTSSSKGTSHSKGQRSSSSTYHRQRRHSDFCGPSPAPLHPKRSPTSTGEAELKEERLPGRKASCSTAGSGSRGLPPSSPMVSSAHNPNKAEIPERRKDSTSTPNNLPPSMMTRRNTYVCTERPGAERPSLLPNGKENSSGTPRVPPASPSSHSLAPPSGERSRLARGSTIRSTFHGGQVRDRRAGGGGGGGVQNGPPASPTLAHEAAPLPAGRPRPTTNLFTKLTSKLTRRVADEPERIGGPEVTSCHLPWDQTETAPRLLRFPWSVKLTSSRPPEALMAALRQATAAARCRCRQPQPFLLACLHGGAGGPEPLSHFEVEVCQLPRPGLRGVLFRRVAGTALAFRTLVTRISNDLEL
Description: Selectivity interaction (KinomeScan (DiscoverX)) EUB0001049a MARK4. The settings on record: at 1 µM.

Test [6] addresses Protein kinase C eta type (Homo sapiens) (UniProt P24723). As to the kind of experiment: Selectivity interaction (KinomeScan (DiscoverX)) EUB0001049a PRKCH. Conditions: at 1 µM.
Another test deals with Histamine H1 receptor (Homo sapiens, UniProt P35367). Description: Selectivity interaction (Panel of non-epigenetic targets (kinases, GPCRs, ion channels, and transporters, Eurofins) ) EUB0000271b HRH1. The settings on record: at 1 µM.
Chain of Histamine H1 receptor (P35367 whole entry): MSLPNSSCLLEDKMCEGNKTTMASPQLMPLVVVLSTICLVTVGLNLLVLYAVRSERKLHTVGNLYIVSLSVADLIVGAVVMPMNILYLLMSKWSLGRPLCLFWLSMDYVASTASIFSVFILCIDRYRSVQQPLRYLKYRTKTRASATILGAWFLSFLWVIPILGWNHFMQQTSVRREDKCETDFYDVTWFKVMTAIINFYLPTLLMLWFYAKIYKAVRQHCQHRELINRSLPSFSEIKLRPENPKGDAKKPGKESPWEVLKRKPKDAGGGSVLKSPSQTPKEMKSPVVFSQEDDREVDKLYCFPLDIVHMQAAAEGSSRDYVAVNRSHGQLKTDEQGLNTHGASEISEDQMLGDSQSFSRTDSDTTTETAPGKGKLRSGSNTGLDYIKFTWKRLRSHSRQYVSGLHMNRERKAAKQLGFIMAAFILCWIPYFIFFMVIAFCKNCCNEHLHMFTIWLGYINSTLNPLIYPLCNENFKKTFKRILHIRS
The target of test [7] is Myosin-IIIa (Homo sapiens) (UniProt Q8NEV4). Description: Selectivity interaction (KinomeScan (DiscoverX)) EUB0000045b MYO3A.
Chain of Myosin-IIIa (Homo sapiens) (Q8NEV4 whole entry): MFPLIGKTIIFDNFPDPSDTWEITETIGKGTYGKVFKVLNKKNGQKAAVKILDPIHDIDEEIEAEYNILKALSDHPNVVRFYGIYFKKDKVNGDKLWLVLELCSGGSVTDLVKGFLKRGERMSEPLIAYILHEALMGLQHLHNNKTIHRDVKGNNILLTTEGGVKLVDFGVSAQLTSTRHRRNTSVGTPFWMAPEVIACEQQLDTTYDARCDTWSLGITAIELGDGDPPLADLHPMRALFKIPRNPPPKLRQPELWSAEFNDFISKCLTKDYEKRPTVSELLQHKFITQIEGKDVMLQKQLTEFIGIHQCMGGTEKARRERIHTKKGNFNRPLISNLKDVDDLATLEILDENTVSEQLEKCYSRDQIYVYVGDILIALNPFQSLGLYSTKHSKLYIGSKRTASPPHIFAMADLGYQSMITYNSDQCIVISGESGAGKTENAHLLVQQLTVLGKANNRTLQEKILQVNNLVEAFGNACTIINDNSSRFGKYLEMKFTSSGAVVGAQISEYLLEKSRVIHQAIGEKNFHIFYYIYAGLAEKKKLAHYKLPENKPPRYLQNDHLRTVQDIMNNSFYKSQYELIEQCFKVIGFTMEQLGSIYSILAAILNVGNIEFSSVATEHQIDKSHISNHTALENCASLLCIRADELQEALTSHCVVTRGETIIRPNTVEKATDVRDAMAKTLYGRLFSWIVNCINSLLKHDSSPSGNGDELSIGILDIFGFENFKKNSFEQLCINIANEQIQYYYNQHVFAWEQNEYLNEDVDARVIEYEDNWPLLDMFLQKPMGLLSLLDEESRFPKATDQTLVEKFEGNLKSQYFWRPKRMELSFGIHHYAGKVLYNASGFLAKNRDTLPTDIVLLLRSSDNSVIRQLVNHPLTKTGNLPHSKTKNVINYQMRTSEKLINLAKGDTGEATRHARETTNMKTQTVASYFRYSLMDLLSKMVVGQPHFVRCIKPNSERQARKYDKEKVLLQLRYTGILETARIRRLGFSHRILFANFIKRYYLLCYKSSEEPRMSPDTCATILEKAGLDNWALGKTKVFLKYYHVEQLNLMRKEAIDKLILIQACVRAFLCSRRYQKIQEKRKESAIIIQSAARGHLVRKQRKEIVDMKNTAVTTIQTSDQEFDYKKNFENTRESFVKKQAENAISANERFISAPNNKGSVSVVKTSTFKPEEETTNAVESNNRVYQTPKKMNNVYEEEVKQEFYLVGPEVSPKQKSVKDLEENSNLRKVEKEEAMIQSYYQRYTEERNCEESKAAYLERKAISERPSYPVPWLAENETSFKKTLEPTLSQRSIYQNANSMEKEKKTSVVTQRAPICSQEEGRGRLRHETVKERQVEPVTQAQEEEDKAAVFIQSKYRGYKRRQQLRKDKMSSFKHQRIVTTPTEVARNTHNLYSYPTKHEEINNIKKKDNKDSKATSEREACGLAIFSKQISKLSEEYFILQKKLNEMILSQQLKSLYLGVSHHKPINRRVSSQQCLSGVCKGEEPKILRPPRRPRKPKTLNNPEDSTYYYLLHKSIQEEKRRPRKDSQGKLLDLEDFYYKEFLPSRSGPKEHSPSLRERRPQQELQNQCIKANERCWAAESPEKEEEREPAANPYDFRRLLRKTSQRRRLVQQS
Test [8] deals with Mitogen-activated protein kinase 9 (Homo sapiens, UniProt P45984). Description: Selectivity interaction (KinomeScan (DiscoverX)) EUB0000666a MAPK9. Conditions: at 10 µM.
Chain of Mitogen-activated protein kinase 9 (P45984 whole entry, looked up): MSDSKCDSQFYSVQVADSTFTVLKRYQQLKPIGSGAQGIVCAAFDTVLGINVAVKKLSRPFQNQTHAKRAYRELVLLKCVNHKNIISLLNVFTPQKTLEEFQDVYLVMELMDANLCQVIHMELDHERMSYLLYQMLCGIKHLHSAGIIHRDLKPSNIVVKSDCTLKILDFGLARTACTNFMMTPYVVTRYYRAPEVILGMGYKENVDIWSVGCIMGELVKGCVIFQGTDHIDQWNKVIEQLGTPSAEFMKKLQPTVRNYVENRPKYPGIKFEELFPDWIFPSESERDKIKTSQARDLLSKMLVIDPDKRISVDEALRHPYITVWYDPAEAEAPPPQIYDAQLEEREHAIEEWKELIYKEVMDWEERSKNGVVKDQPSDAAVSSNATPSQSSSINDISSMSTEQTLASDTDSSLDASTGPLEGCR
The target in test [9] is T2, G protein-coupled receptor kinase 3 (Homo sapiens) (UniProt P35626).
T2 sequence (whole entry): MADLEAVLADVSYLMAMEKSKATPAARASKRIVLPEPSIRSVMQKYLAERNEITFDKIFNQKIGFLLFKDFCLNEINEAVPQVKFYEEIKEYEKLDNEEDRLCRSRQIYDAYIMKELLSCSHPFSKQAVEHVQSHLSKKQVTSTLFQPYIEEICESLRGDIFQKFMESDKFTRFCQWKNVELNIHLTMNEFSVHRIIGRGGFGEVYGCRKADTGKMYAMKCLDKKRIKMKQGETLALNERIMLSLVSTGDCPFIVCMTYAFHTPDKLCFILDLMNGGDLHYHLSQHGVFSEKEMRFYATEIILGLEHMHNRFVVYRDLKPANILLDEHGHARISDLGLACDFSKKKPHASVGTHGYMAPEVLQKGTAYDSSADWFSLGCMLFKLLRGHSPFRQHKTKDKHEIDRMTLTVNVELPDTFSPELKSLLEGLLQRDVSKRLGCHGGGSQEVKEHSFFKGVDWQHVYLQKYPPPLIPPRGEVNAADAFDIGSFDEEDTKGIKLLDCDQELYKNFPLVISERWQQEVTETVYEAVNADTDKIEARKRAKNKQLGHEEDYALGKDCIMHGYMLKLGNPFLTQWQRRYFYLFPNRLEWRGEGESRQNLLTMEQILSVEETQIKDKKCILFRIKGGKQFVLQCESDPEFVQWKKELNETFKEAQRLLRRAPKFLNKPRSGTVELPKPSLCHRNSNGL
Description: Selectivity interaction (SelectScreen profiling (Invitrogen)) EUB0000607a ADRBK2. Conditions: at 2 µM.

Test [10] has as its target T3, Myosin light chain kinase family member 4 (Homo sapiens) (UniProt Q86YV6).
T3 sequence (whole entry): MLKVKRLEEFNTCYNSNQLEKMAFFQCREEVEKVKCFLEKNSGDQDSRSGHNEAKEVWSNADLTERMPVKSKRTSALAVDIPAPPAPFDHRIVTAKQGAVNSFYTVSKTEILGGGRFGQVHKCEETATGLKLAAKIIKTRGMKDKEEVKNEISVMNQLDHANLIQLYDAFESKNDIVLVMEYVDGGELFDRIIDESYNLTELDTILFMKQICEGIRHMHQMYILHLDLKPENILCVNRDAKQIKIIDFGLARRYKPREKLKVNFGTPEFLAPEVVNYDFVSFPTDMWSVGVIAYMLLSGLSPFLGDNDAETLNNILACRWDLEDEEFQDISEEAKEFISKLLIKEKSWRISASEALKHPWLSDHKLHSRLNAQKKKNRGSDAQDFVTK
As to the kind of experiment: Selectivity interaction (KinomeScan (DiscoverX)) EUB0000607a MYLK4. The settings on record: at 10 µM.

Test [11] deals with MAP/microtubule affinity-regulating kinase 3 (Homo sapiens) (UniProt P27448). As to the kind of experiment: Selectivity interaction (ActivX KiNativ screen (kinase selectivity in THP-1 cell lysates)) EUB0000639a MARK3. It counts as subcellular. The settings on record: lysate, at 0.01 µM.
Test [12] addresses LIM domain kinase 1 (Homo sapiens) (UniProt P53667). Description: Selectivity interaction (KinomeScan (DiscoverX)) EUB0000229b LIMK1. The settings on record: at 10 µM.
The target of test [13] is Tyrosine-protein kinase Fyn (Homo sapiens) (UniProt P06241). Conditions: at 10 µM.
In test [14] the target is Ribosomal protein S6 kinase alpha-6 (Homo sapiens, UniProt Q9UK32). As to the kind of experiment: Selectivity interaction (KinomeScan (DiscoverX)) EUB0000595a RPS6KA6. Conditions: at 10 µM.
Chain of Ribosomal protein S6 kinase alpha-6 (Q9UK32 whole entry): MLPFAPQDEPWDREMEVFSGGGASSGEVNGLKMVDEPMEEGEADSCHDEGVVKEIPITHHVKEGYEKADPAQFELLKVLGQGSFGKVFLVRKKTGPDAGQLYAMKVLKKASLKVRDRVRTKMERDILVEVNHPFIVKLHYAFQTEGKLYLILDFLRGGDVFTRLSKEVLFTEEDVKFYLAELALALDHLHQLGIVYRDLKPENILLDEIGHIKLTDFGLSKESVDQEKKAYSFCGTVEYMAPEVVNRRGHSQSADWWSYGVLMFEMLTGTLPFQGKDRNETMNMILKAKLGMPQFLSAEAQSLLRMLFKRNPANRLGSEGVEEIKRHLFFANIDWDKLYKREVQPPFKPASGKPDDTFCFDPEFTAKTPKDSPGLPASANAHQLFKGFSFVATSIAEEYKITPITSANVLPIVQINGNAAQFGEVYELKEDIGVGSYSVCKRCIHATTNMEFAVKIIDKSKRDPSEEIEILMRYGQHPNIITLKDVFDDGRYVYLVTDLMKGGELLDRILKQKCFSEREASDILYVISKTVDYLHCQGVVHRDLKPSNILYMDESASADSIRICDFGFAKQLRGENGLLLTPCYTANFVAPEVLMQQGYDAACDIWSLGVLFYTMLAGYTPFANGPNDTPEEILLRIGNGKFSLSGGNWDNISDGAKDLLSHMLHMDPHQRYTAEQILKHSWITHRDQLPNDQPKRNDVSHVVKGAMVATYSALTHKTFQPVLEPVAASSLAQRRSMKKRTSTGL
In test [15] the target is Mitogen-activated protein kinase kinase kinase 1 (Homo sapiens, UniProt Q13233). As to the kind of experiment: Selectivity interaction (Kinase panel (KiNativ target engagement assay in Jurkat cells)) EUB0001635a MAP3K1. The test is classed as cell-based. The settings on record: Selectivity number of off-targets 0.0, Selectivity number of targets 233.0, Source Knowledge https://www.sciencedirect.com/science/article/pii/S2451945619300674?via%3Dihub, at 1 µM.

Chain of LIM domain kinase 1 (Homo sapiens) (P53667 whole entry, looked up, the tested form may be a part): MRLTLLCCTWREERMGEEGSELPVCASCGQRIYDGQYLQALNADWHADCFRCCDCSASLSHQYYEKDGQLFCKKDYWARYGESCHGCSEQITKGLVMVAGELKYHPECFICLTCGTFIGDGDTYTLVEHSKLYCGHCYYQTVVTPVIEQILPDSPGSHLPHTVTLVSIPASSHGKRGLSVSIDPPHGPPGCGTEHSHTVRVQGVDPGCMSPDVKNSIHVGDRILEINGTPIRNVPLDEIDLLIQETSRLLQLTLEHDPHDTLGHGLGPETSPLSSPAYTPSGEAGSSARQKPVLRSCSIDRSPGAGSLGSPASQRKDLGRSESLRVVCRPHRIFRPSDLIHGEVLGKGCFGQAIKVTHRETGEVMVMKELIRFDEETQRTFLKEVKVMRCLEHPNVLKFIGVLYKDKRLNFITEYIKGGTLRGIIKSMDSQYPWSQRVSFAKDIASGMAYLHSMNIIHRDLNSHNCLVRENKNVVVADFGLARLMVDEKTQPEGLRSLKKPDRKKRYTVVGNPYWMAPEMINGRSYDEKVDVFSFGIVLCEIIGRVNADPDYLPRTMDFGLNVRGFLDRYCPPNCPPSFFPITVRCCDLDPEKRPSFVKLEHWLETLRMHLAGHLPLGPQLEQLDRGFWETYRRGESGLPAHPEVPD

For the compound `Cc1cc([C@@H](C)Nc2ccccc2C(=O)O)c2nc(N3CCOCC3)cc(=O)n2c1` [AZD-6482], in [1], the % of control amounted to 91%.
The term EC50 denotes the concentration needed to bring the measured effect to its halfway point. In turn, `CC(C)(O)[C@H](F)CN1Cc2cc(NC(=O)c3cnn4cccnc34)c(N3CCOCC3)cc2C1=O` came in with an EC50 in [2] of more than 50 µM.
In the case of `CCN(CC)CCCCNc1ncc2cc(-c3cc(OC)cc(OC)c3)c(NC(=O)NC(C)(C)C)nc2n1`, the % of control in test [3] amounted to 100%.
`Nc1cnc(N2CCc3cc(S(=O)(=O)Nc4c(F)cc(Cl)cc4F)cc(N4CCCC4=O)c32)nc1` [TP-020n]: the % of control in test [4] stood at 100%.
On to `COc1cc(Nc2nc(C)cc(-c3cnn4nc(OC)ccc34)n2)cc(C(F)(F)F)c1`, for which the % of control in test [5] and in test [6] was 100% each time.
For `Cc1cc(C)cc([C@@H]2c3cc(C)ccc3NC(=O)CN2C(=O)c2ccc(Br)s2)c1`, the % of inhibition on Histamine H1 receptor stood at 0%.
Consider `C=CC(=O)Nc1cc(-n2c(=O)ccc3cnc4ccc(-c5ccc(NS(C)(=O)=O)cc5)cc4c32)ccc1C`, for which the % of control in test [7] (at 1 µM) was determined as 100%; in test [7] (at 10 µM), 85%.
The compound `O=C(NOC[C@H](O)CO)c1ccc(F)c(F)c1Nc1ccc(I)cc1F` displayed a % of control in [8] of 88%.
As to `CNC(=O)Nc1ccc(-c2nc(N3CC4CCC(C3)O4)c3cnn(C4CCC5(CC4)OCCO5)c3n2)cc1`, the % of inhibition in [9] is -3%. In test [10], this compound returned a % of control of 100%.
`CC[C@@H]1[C@H](F)C(=O)N[C@@H]1COc1nccc2cc(C(N)=O)c(OC)cc12` [ZIMLOVISERTIB]: in [11], the % of inhibition turned out to be 2.3%.
The compound `COc1cc(N(C)c2ccnc3ccc(C(F)(F)F)cc23)cc(OC)c1OC` registered a % binding in test [12] of 89%.
In the case of `COCC(=O)NC/C=C/c1ccc2ncnc(Nc3ccc(Oc4ccc(C)nc4)c(C)c3)c2c1` [CP-724714], the % of control worked out at 100% in test [13] and 88% in [14].
As to `C=CC(=O)Nc1ccc(C(=O)Nc2[nH]nc3c2CN(C(=O)N[C@H](CN(C)C)c2ccccc2)C3(C)C)cc1`, in test [15], the % of engagement worked out at 12.9%.

The values are drawn from ChEMBL document CHEMBL5465560, “Selectivity Literature for EUbOPEN Chemogenomic Library” (2024).
